For 20 molecules, Ki results are on record in US10501461B2, “Tyrosine amide derivatives as Rho-kinase inhibitors” (CHIESI FARMACEUTICI S.P.A., priority 2017, dated 2019).

One test addresses Rho kinase 1 (ROCK-I) (Homo sapiens, UniProt Q13464). Nature of the test: In vitro Rho kinase inhibitory activity assay (ADP-Glo), Rho kinase 1. It is filed as biochemical. The conditions noted are these: 10 μM ATP, 25° C., expressed as range of activity. On the procedure: (§1) The effectiveness of compounds of the present invention to inhibit Rho kinase activity can be determined in a 10 μl assay containing 40 mM Tris pH7.5, 20 mM MgCl2 0.1 mg/ml BSA, 50 μM DTT and 2.5 μM peptide substrate (Myelin Basic Protein) using an ADP-Glo kit (Promega). Compounds were dissolved in DMSO such that the final concentration of DMSO was 1% in the assay. All reactions/incubations are performed at 25° C. Compound (2 ul) and either Rho kinase 1 or 2 (4 μl) were mixed and incubated for 30 mins. Reactions were initiated by addition of ATP (4 μl) such that the final concentration of ATP in the assay was 10 μM. After a 1 hour incubation 10 μl of ADP-Glo Reagent was added and after a further 45 minute incubation 20 ul of Kinase Detection Buffer was added and the mixture incubated for a further 30 minutes. The luminescent signal was measured on a luminometer. […] Compounds were tested in dose-response format and the inhibition of kinase activity was calculated at each concentration of compound. To determine the IC50 (concentration of compound required to inhibit 50% of the enzyme activity) data were fit to a plot of % inhibition vs Log10 compound concentration using a sigmoidal fit with a variable slope and fixing the maximum to 100% and the minimum to 0%. To determine the Ki values the Cheng-Prusoff equation was utilized (Ki=IC50/(1+[S]/Km).
On the technique in general: ADP-Glo turns the ADP formed in a reaction into a luminescent signal.

The next test addresses Rho kinase 2 (ROCK-II) (Homo sapiens, UniProt O75116). Nature of the test: In vitro Rho kinase inhibitory activity assay (ADP-Glo), Rho kinase 2. The format is biochemical. The conditions noted are these: 10 μM ATP, 25° C., expressed as range of activity. On the procedure:
as §1

Sequence of Rho kinase 2 (ROCK-II) (O75116 whole entry): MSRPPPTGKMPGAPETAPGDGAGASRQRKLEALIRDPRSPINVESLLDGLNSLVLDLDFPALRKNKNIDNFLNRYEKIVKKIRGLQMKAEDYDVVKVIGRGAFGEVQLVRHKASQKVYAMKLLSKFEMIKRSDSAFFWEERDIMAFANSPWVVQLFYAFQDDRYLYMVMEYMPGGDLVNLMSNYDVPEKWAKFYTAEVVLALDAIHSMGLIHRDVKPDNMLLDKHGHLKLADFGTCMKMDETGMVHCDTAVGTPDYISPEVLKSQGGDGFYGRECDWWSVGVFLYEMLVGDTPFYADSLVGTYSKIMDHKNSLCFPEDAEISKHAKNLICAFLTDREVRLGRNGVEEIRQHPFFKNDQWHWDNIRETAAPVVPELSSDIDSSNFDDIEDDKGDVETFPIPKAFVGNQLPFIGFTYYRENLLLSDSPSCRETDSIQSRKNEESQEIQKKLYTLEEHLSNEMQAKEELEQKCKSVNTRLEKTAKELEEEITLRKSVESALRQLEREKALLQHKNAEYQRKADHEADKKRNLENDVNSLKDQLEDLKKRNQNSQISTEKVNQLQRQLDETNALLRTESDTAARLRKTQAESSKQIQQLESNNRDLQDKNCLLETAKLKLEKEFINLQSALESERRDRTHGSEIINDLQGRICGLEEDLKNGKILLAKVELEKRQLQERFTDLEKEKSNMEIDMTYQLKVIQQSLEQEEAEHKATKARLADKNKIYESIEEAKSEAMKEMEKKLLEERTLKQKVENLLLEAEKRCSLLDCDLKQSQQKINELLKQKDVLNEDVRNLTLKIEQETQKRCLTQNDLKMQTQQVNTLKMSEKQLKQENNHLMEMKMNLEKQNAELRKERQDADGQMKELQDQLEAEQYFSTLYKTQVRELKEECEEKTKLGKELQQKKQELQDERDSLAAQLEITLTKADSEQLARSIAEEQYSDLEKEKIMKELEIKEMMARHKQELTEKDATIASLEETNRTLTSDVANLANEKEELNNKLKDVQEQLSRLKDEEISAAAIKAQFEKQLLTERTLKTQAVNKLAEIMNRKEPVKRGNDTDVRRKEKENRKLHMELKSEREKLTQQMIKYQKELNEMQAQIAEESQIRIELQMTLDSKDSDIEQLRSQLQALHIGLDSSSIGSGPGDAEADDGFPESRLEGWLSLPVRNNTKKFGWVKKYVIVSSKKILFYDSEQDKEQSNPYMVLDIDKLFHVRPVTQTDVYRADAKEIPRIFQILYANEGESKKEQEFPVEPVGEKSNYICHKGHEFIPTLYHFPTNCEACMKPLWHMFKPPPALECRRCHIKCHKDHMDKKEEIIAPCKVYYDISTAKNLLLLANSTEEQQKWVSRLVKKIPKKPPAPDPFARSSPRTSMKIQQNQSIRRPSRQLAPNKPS
Sequence of Rho kinase 1 (ROCK-I) (Q13464 whole entry): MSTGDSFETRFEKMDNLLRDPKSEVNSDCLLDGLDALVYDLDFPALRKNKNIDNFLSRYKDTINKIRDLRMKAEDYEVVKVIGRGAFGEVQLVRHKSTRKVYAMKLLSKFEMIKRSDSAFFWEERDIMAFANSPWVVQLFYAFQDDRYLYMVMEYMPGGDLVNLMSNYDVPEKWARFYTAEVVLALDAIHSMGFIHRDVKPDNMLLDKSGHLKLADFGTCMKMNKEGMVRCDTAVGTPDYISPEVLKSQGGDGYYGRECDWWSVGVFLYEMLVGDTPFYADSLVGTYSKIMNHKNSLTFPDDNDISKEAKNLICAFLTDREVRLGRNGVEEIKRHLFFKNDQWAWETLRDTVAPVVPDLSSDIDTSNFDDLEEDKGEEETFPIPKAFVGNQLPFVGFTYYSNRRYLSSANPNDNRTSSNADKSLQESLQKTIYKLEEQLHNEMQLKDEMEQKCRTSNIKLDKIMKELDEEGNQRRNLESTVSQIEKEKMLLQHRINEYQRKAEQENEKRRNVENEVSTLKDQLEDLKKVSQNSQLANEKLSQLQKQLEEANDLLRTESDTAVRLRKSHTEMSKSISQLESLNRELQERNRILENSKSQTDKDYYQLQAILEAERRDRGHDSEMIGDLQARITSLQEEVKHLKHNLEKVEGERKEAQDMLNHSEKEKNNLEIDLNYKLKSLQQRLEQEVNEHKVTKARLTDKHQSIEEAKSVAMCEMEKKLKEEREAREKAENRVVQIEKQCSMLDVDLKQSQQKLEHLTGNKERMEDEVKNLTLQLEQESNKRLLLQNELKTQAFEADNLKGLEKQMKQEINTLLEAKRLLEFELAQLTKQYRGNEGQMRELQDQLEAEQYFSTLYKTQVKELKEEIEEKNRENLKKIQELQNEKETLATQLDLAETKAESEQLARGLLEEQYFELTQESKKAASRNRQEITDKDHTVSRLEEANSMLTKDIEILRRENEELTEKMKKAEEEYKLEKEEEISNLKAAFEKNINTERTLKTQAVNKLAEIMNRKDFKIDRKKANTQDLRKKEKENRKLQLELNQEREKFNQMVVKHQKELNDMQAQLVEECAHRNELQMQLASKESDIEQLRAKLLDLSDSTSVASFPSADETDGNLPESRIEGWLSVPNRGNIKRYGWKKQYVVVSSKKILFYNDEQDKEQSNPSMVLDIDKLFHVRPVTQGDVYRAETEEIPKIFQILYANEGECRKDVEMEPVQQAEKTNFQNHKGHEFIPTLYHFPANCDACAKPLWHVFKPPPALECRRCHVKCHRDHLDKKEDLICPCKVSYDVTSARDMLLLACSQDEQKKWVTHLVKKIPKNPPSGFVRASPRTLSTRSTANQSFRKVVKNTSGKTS

As for `CNC(=O)C(Cc1ccc(Oc2ccnc3[nH]ccc23)cc1)NCC1CCCCC1` (stereo not shown) [Example 185, 3-(4-((1H-pyrrolo[2,3-b]pyridin-4-yl)oxy)phenyl)-2-((cyclohexylmethyl)amino)-N-methylpropanamide], the Ki on Rho kinase 1 (ROCK-I) and on Rho kinase 2 (ROCK-II) was more than 30 nM in each case.
Regarding `Cc1c[nH]c2nccc(Oc3ccc(C[C@H](N)C(=O)N4C[C@@H](C)N(C)[C@@H](C)C4)cc3F)c12` [Example 17, (S)-2-amino-3-(3-fluoro-4-((3-methyl-1H-pyrrolo[2,3-b]pyridin-4-yl)oxy)phenyl)-1-((3S,5R)-3,4,5-trimethylpiperazin-1-yl)propan-1-one], the Ki at Rho kinase 1 (ROCK-I) and on Rho kinase 2 (ROCK-II) was less than 3 nM throughout.
For the molecule `Cc1c[nH]c2nccc(Oc3ccc(C[C@@H](N)C(=O)NC4CCCCC4)cc3F)c12` [Example 148, (R)-2-amino-N-cyclohexyl-3-(3-fluoro-4-((3-methyl-1H-pyrrolo[2,3-b]pyridin-4-yl)oxy)phenyl)propanamide], the Ki at Rho kinase 1 (ROCK-I) and on Rho kinase 2 (ROCK-II) was less than 3 nM in each case.
As for `Cc1c[nH]c2nccc(Oc3ccc(CC(N)C(=O)N4CCN(C5CC5)CC4)cc3F)c12` (stereo not shown) [Example 60, 2-amino-1-(4-cyclopropylpiperazin-1-yl)-3-(3-fluoro-4-((3-methyl-1H-pyrrolo[2,3-b]pyridin-4-yl)oxy)phenyl)propan-1-one], the Ki on Rho kinase 1 (ROCK-I) and at Rho kinase 2 (ROCK-II) was less than 3 nM in each case.
`Cc1c[nH]c2ncnc(Oc3ccc(C[C@H](N)C(=O)NC4CCN(C)CC4)cc3F)c12` [Example 117, (S)-2-amino-3-(3-fluoro-4-((5-methyl-7H-pyrrolo[2,3-d]pyrimidin-4-yl)oxy)phenyl)-N-(1-methylpiperidin-4-yl)propanamide]: the Ki on Rho kinase 1 (ROCK-I) and at Rho kinase 2 (ROCK-II) was 3 to 30 nM each time.
Regarding `N[C@@H](Cc1ccc(Oc2ccnc3[nH]ccc23)cn1)C(=O)NC1CCCCC1` [Example 227, (S)-3-(5-((1H-pyrrolo[2,3-b]pyridin-4-yl)oxy)pyridin-2-yl)-2-amino-N-cyclohexylpropanamide], the Ki on Rho kinase 1 (ROCK-I) and on Rho kinase 2 (ROCK-II) was more than 30 nM throughout.
On to `Cc1c[nH]c2nccc(Oc3ccc(C[C@H](N)C(=O)N4CCN(Cc5cncnc5)CC4)cc3F)c12` [Example 162, (S)-2-amino-3-(3-fluoro-4-((3-methyl-1H-pyrrolo[2,3-b]pyridin-4-yl)oxy)phenyl)-1-(4-(pyrimidin-5-ylmethyl)piperazin-1-yl)propan-1-one], for which the Ki on Rho kinase 1 (ROCK-I) and on Rho kinase 2 (ROCK-II) was less than 3 nM in each case.
As for `N#Cc1c[nH]c2nccc(Oc3ccc(C[C@H](N)C(=O)NC4CCOCC4)cc3)c12` [Example 218, (S)-2-amino-3-(4-((3-cyano-1H-pyrrolo[2,3-b]pyridin-4-yl)oxy)phenyl)-N-(tetrahydro-2H-pyran-4-yl)propanamide], the Ki on Rho kinase 1 (ROCK-I) and on Rho kinase 2 (ROCK-II) was less than 3 nM each time.
On to `Cc1c[nH]c2nccc(Oc3ccc(C[C@H](N)C(=O)N4CC5(CN(C)C5)C4)cc3F)c12` [Example 3, (S)-2-amino-3-(3-fluoro-4-((3-methyl-1H-pyrrolo[2,3-b]pyridin-4-yl)oxy)phenyl)-1-(6-methyl-2,6-diazaspiro[3.3]heptan-2-yl)propan-1-one], for which the inhibitory constant (Ki) on Rho kinase 1 (ROCK-I) and at Rho kinase 2 (ROCK-II) was 3 to 30 nM in each case.
On to `Cc1c[nH]c2nccc(Oc3ccc(C[C@@H](N)C(=O)Nc4ccccc4)cc3F)c12` [Example 149, (R)-2-amino-3-(3-fluoro-4-((3-methyl-1H-pyrrolo[2,3-b]pyridin-4-yl)oxy)phenyl)-N-phenylpropanamide], for which the Ki on Rho kinase 1 (ROCK-I) and on Rho kinase 2 (ROCK-II) was less than 3 nM in each case.
`CN[C@@H](Cc1ccc(Oc2ccnc3[nH]ccc23)cc1)C(=O)NC1CCCCC1` [Example 131, (S)-3-(4-((1H-pyrrolo[2,3-b]pyridin-4-yl)oxy)phenyl)-N-cyclohexyl-2-(methylamino)propanamide]: the Ki at Rho kinase 1 (ROCK-I) is 3 to 30 nM; on Rho kinase 2 (ROCK-II), less than 3 nM.
For `N[C@@H](Cc1ccc(Oc2ccnc3[nH]cc(Cl)c23)cc1)C(=O)NC1CCCCC1` [Example 191, (S)-2-amino-3-(4-((3-chloro-1H-pyrrolo[2,3-b]pyridin-4-yl)oxy)phenyl)-N-cyclohexylpropanamide], in that order: less than 3 nM and less than 3 nM.
Taken in the same sequence, the figures for `Cc1c[nH]c2nccc(Oc3ccc(C[C@H](N)C(=O)N4CCN(C(=O)Cc5ccccc5)CC4)cc3F)c12` [Example 169, (S)-2-amino-3-(3-fluoro-4-((3-methyl-1H-pyrrolo[2,3-b]pyridin-4-yl)oxy)phenyl)-1-(4-(2-phenylacetyl-)piperazin-1-yl)propan-1-one] were less than 3 nM and less than 3 nM.
For the molecule `Cc1c[nH]c2nccc(Oc3ccc(CC(N)C(=O)N4CCN(Cc5ccncc5)CC4)cc3F)c12` (stereo not shown) [Example 51, 2-amino-3-(3-fluoro-4-((3-methyl-1H-pyrrolo[2,3-b]pyridin-4-yl)oxy)phenyl)-1-(4-(pyridin-4-ylmethyl)piperazin-1-yl)propan-1-one], the Ki at Rho kinase 1 (ROCK-I) and at Rho kinase 2 (ROCK-II) was less than 3 nM in each case.
For `Cc1c[nH]c2nccc(Oc3ccc(C[C@H](N)C(=O)N4CCN(c5ccccc5)CC4)cc3F)c12` [Example 5, (S)-2-amino-3-(3-fluoro-4-((3-methyl-1H-pyrrolo[2,3-b]pyridin-4-yl)oxy)phenyl)-1-(4-phenylpiperazin-1-yl)propan-1-one], the Ki at Rho kinase 1 (ROCK-I) and at Rho kinase 2 (ROCK-II) was less than 3 nM each time.
Consider `COCCN1CCN(C(=O)C(N)Cc2ccc(Oc3ccnc4[nH]cc(C)c34)c(F)c2)CC1` (stereo not shown) [Example 19, 2-amino-3-(3-fluoro-4-((3-methyl-1H-pyrrolo[2,3-b]pyridin-4-yl)oxy)phenyl)-1-(4-(2-methoxyethyl)piperazin-1-yl)propan-1-one], for which the Ki on Rho kinase 1 (ROCK-I) and on Rho kinase 2 (ROCK-II) was less than 3 nM each time.
In the case of `Cc1c[nH]c2nccc(Oc3ccc(C[C@H](N)C(=O)N4CCN(C(=O)C5CCCCC5)CC4)cc3F)c12` [Example 168, (S)-2-amino-1-(4-(cyclohexanecarbonyl)piperazin-1-yl)-3-(3-fluoro-4-((3-methyl-1H-pyrrolo[2,3-b]pyridin-4-yl)oxy)phenyl)propan-1-one], the Ki at Rho kinase 1 (ROCK-I) and on Rho kinase 2 (ROCK-II) was less than 3 nM each time.
As for `Cc1c[nH]c2nccc(Oc3ccc(C[C@H](N)C(=O)N4CCN(C(=O)c5cccnc5)CC4)cc3F)c12` [Example 174, (S)-2-amino-3-(3-fluoro-4-((3-methyl-1H-pyrrolo[2,3-b]pyridin-4-yl)oxy)phenyl)-1-(4-nicotinoylpiperazin-1-yl)propan-1-one], the Ki on Rho kinase 1 (ROCK-I) and at Rho kinase 2 (ROCK-II) was less than 3 nM each time.
Regarding `Cc1c[nH]c2nccc(Oc3ccc(C[C@@H](N)C(=O)Nc4ccccc4)cc3)c12` [Example 138, (R)-2-amino-3-(4-((3-methyl-1H-pyrrolo[2,3-b]pyridin-4-yl)oxy)phenyl)-N-phenylpropanamide], the Ki at Rho kinase 1 (ROCK-I) and at Rho kinase 2 (ROCK-II) was 3 to 30 nM each time.
Take `Cc1c[nH]c2nccc(Oc3ccc(C[C@@H](N)C(=O)NC4CCCCC4)cc3)c12` [Example 142, (R)-2-amino-N-cyclohexyl-3-(4-((3-methyl-1H-pyrrolo[2,3-b]pyridin-4-yl)oxy)phenyl)propanamide]: the Ki on Rho kinase 1 (ROCK-I) and on Rho kinase 2 (ROCK-II) was 3 to 30 nM each time.

Broadly, the Ki is the equilibrium dissociation constant of an inhibitor or competing ligand from its target. Lower therefore signals tighter binding.
